Where a SMILES comes first, the peptide text is derived from it. Bridges are numbered along the chain shown (N, C = ends). [ ]: non-standard residue; d: D form. NMeY = CN[C@@H](Cc1ccc(O)cc1)C(=O)O; R8 = C=CCCCCCC[C@@](C)(N)C(=O)O; S5 = C=CCCC[C@](C)(N)C(=O)O; Nle = CCCC[C@H](N)C(=O)O; Aib = CC(C)(N)C(=O)O
Molecular target: T1, human GHRH receptor (hGHRHR) (Homo sapiens, UniProt Q02643)
T1 construct: expressed in transfected cells; host or cells: Human 293 cells
T1 sequence (Q02643 23-423): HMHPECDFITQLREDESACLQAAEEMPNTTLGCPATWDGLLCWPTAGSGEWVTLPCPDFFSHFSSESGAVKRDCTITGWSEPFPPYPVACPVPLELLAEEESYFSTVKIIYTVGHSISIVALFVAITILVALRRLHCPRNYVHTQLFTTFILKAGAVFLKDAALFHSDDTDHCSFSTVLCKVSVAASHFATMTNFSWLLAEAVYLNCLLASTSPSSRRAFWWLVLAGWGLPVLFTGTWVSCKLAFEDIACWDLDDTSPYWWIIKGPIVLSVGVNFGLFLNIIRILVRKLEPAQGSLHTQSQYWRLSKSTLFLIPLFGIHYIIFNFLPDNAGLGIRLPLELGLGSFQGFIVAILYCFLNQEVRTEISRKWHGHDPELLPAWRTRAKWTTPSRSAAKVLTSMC
Assay: GHRHR agonism measured by cAMP (HTRF) in human 293 cells expressing hGHRHR;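 note: receptor expressed transiently or stably, cells stimulated in serum-free medium, EC50 from a non-linear dose-response fit, maximal response defined by reference GHRH stimulation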
Type: cell-based
Conditions: 30 min at RT

`CCCC[C@H](NC(=O)[C@@H](NC(=O)[C@H](CC(=O)O)NC(=O)[C@H](CCC(N)=O)NC(=O)[C@H](CC(C)C)NC(=O)[C@H](C)NC(=O)[C@H](CCCCN)NC(=O)[C@H](CCCNC(=N)N)NC(=O)[C@H](C)NC(=O)[C@H](CO)NC(=O)[C@H](CC(C)C)NC(=O)[C@H](CCC(N)=O)NC(=O)[C@H](C)NC(=O)[C@H](CC(C)C)NC(=O)[C@]1(C)CCCC=CCCC[C@](C)(NC(=O)[C@H](C)NC(=O)[C@@H](NC(=O)[C@H](Cc2ccccc2)NC(=O)[C@@H](NC(=O)[C@H](C)NC(=O)[C@H](CC(=O)O)NC(=O)[C@H](C)NC(=O)[C@H](Cc2ccc(O)cc2)NC)[C@@H](C)CC)[C@@H](C)O)C(=O)N[C@@H](Cc2ccc(O)cc2)C(=O)N[C@@H](CCCNC(=N)N)C(=O)N[C@@H](CCCCN)C(=O)N1)[C@@H](C)CC)C(=O)N[C@@H](CO)C(=O)N[C@@H](CCCNC(=N)N)C(N)=O` [SP-10] (H-[NMeY]ADAIFTA[S5]YRK[S5]LAQLSARKALQDI[Nle]SR-NH2; staple 9-13) showed an EC50 of 1 to 10 nM.
In the case of `CCCC[C@H](NC(=O)[C@@H](NC(=O)[C@H](CC(=O)O)NC(=O)[C@H](CCC(N)=O)NC(=O)[C@H](CC(C)C)NC(=O)[C@H](C)NC(=O)[C@H](CCCCN)NC(=O)[C@H](CCCNC(=N)N)NC(=O)[C@H](C)NC(=O)[C@H](CO)NC(=O)[C@H](CC(C)C)NC(=O)[C@H](CCC(N)=O)NC(=O)[C@H](C)NC(=O)[C@H](CC(C)C)NC(=O)[C@@H](NC(=O)[C@H](CCCCN)NC(=O)[C@H](CCCNC(=N)N)NC(=O)[C@H](Cc1ccc(O)cc1)NC(=O)[C@H](CO)NC(=O)[C@H](C)NC(=O)[C@@H](NC(=O)[C@H](Cc1ccccc1)NC(=O)[C@@H](NC(=O)[C@H](C)NC(=O)[C@H](CC(=O)O)NC(=O)[C@H](C)NC(=O)[C@H](Cc1ccc(O)cc1)NC)[C@@H](C)CC)[C@@H](C)O)C(C)C)[C@@H](C)CC)C(=O)N[C@@H](CO)C(=O)N[C@@H](CCCNC(=N)N)C(N)=O` [SP-35] (H-[NMeY]ADAIFTASYRKVLAQLSARKALQDI[Nle]SR-NH2), the EC50 is reported as ≤ 1 nM.
`CCCC[C@H](NC(=O)[C@@H](NC(=O)[C@H](CC(=O)O)NC(=O)[C@H](CCC(N)=O)NC(=O)[C@H](CC(C)C)NC(=O)[C@H](C)NC(=O)[C@H](CCCCN)NC(=O)[C@H](CCCNC(=N)N)NC(=O)[C@H](C)NC(=O)[C@H](CO)NC(=O)[C@H](CC(C)C)NC(=O)[C@H](CCC(N)=O)NC(=O)[C@H](C)NC(=O)[C@H](CC(C)C)NC(=O)[C@@H](NC(=O)[C@]1(C)CCCC=CCCC[C@](C)(NC(=O)[C@@H](NC(=O)[C@H](Cc2ccccc2)NC(=O)[C@@H](NC(=O)[C@H](C)NC(=O)[C@H](CC(=O)O)NC(=O)[C@H](C)NC(=O)[C@H](Cc2ccc(O)cc2)NC)[C@@H](C)CC)[C@@H](C)O)C(=O)N[C@@H](CO)C(=O)N[C@@H](Cc2ccc(O)cc2)C(=O)N[C@@H](CCCNC(=N)N)C(=O)N1)C(C)C)[C@@H](C)CC)C(=O)N[C@@H](CO)C(=O)N[C@@H](CCCNC(=N)N)C(N)=O` [SP-9] (H-[NMeY]ADAIFT[S5]SYR[S5]VLAQLSARKALQDI[Nle]SR-NH2; staple 8-12) was tested, and the EC50 was 1 to 10 nM.
With `CCCC[C@H](NC(=O)[C@@H](NC(=O)[C@H](CC(=O)O)NC(=O)[C@H](CCC(N)=O)NC(=O)[C@H](CC(C)C)NC(=O)[C@H](C)NC(=O)[C@H](CCCCN)NC(=O)[C@H](CCCNC(=N)N)NC(=O)[C@]1(C)CCCC=CCCCCCC[C@@](C)(NC(=O)[C@H](CCCNC(=N)N)NC(=O)[C@H](Cc2ccc(O)cc2)NC(=O)[C@H](CO)NC(=O)[C@H](C)NC(=O)[C@@H](NC(=O)[C@H](Cc2ccccc2)NC(=O)[C@@H](NC(=O)[C@H](C)NC(=O)[C@H](CC(=O)O)NC(=O)[C@@H](C)NC(=O)[C@H](Cc2ccc(O)cc2)NC(=O)[C@@H]2CCCN2C(=O)[C@@H]2CCCN2)[C@@H](C)CC)[C@@H](C)O)C(=O)N[C@@H](C(C)C)C(=O)N[C@@H](CC(C)C)C(=O)N[C@@H](C)C(=O)N[C@@H](CCC(N)=O)C(=O)N[C@@H](CC(C)C)C(=O)N[C@@H](CO)C(=O)N1)[C@@H](C)CC)C(=O)N[C@@H](CO)C(=O)N[C@@H](CCCNC(=N)N)C(N)=O` [SP-56] (H-PPY[dA]DAIFTASYR[R8]VLAQLS[S5]RKALQDI[Nle]SR-NH2; staple 14-21) the EC50 was > 50 nM.
With `CCCC[C@H](NC(=O)[C@@H](NC(=O)[C@H](CC(=O)O)NC(=O)[C@H](CCC(N)=O)NC(=O)[C@H](CC(C)C)NC(=O)[C@H](C)NC(=O)[C@H](CCCCN)NC(=O)[C@H](CCCNC(=N)N)NC(=O)[C@]1(C)CCCC=CCCCCCC[C@@](C)(NC(=O)[C@H](CCCNC(=N)N)NC(=O)[C@H](Cc2ccc(O)cc2)NC(=O)[C@H](CO)NC(=O)[C@H](C)NC(=O)[C@@H](NC(=O)[C@H](Cc2ccccc2)NC(=O)[C@@H](NC(=O)[C@H](C)NC(=O)[C@H](CC(=O)O)NC(=O)[C@H](C)NC(=O)[C@H](Cc2ccc(O)cc2)NC)[C@@H](C)CC)[C@@H](C)O)C(=O)N[C@@H](C(C)C)C(=O)N[C@@H](CC(C)C)C(=O)N[C@@H](C)C(=O)N[C@@H](CCC(N)=O)C(=O)N[C@@H](CC(C)C)C(=O)N[C@@H](CO)C(=O)N1)[C@@H](C)CC)C(=O)N[C@@H](CO)C(=O)N[C@@H](CCCNC(=N)N)C(=O)N[C@@H](CCC(=O)O)C(=O)N[C@@H](CCC(=O)O)C(=O)N[C@@H](CCC(=O)O)C(N)=O` [SP-59] (H-[NMeY]ADAIFTASYR[R8]VLAQLS[S5]RKALQDI[Nle]SREEE-NH2; staple 12-19) the EC50 was 25 to 50 nM.
`CCCC[C@H](NC(=O)[C@@H](NC(=O)[C@H](CC(=O)O)NC(=O)[C@H](CCC(N)=O)NC(=O)[C@H](CC(C)C)NC(=O)[C@H](CC(C)C)NC(=O)[C@H](CCCCN)NC(=O)[C@H](CCCNC(=N)N)NC(=O)[C@H](C)NC(=O)[C@H](CO)NC(=O)[C@H](CC(C)C)NC(=O)[C@H](CCC(N)=O)NC(=O)[C@H](C)NC(=O)[C@H](CC(C)C)NC(=O)[C@@H](NC(=O)[C@H](CCCCN)NC(=O)[C@H](CCCNC(=N)N)NC(=O)[C@H](Cc1ccc(O)cc1)NC(=O)[C@H](CO)NC(=O)[C@H](CC(N)=O)NC(=O)[C@@H](NC(=O)[C@H](Cc1ccccc1)NC(=O)[C@@H](NC(=O)[C@H](C)NC(=O)[C@H](CC(=O)O)NC(=O)[C@H](C)NC(=O)[C@@H](N)Cc1ccc(O)cc1)[C@@H](C)CC)[C@@H](C)O)C(C)C)[C@@H](C)CC)C(=O)N[C@@H](CO)C(=O)N[C@@H](CCCNC(=N)N)C(N)=O` [SP-5] (H-YADAIFTNSYRKVLAQLSARKLLQDI[Nle]SR-NH2) was tested, and the EC50 was 1 to 10 nM.
`CCCC[C@H](NC(=O)[C@@H](NC(=O)[C@H](CC(=O)O)NC(=O)[C@H](CCC(N)=O)NC(=O)[C@H](CC(C)C)NC(=O)[C@H](C)NC(=O)[C@H](CCCCN)NC(=O)[C@H](CCCNC(=N)N)NC(=O)[C@H](C)NC(=O)[C@H](CO)NC(=O)[C@H](CC(C)C)NC(=O)[C@H](CCC(N)=O)NC(=O)[C@H](C)NC(=O)[C@H](CC(C)C)NC(=O)[C@@H](NC(=O)[C@]1(C)CCCC=CCCCCCC[C@@](C)(NC(=O)[C@H](C)NC(=O)[C@H](CC(=O)O)NC(=O)[C@H](C)NC(=O)[C@H](Cc2ccc(O)cc2)NC)C(=O)N[C@@H](Cc2ccccc2)C(=O)N[C@@H]([C@@H](C)O)C(=O)N[C@@H](C)C(=O)N[C@@H](CO)C(=O)N[C@@H](Cc2ccc(O)cc2)C(=O)N[C@@H](CCCNC(=N)N)C(=O)N1)C(C)C)[C@@H](C)CC)C(=O)N[C@@H](CO)C(=O)N[C@@H](CCCNC(=N)N)C(N)=O` [SP-24] (H-[NMeY]ADA[R8]FTASYR[S5]VLAQLSARKALQDI[Nle]SR-NH2; staple 5-12) showed an EC50 of 1 to 10 nM.
`CCCC[C@H](NC(=O)[C@@H](NC(=O)[C@H](CC(=O)O)NC(=O)C(C)(C)NC(=O)[C@H](CC(C)C)NC(=O)[C@H](C)NC(=O)[C@H](CCCCN)NC(=O)[C@H](CCCNC(=N)N)NC(=O)[C@H](C)NC(=O)[C@H](CO)NC(=O)[C@H](CC(C)C)NC(=O)[C@H](CCC(N)=O)NC(=O)[C@H](C)NC(=O)[C@H](CC(C)C)NC(=O)[C@@H](NC(=O)[C@H](CCCCN)NC(=O)[C@H](CCCNC(=N)N)NC(=O)[C@H](Cc1ccc(O)cc1)NC(=O)[C@H](CO)NC(=O)C(C)(C)NC(=O)[C@@H](NC(=O)[C@H](Cc1ccccc1)NC(=O)[C@@H](NC(=O)[C@H](C)NC(=O)[C@H](CC(=O)O)NC(=O)[C@H](C)NC(=O)[C@H](Cc1ccc(O)cc1)NC)[C@@H](C)CC)[C@@H](C)O)C(C)C)[C@@H](C)CC)C(=O)N[C@@H](CO)C(=O)N[C@@H](CCCNC(=N)N)C(N)=O` [SP-53] (H-[NMeY]ADAIFT[Aib]SYRKVLAQLSARKAL[Aib]DI[Nle]SR-NH2) showed an EC50 of 1 to 10 nM.
`CCCC[C@H](NC(=O)[C@@H](NC(=O)[C@H](CC(=O)O)NC(=O)[C@]1(C)CCCC=CCCCCCC[C@@](C)(NC(=O)[C@H](CCC(N)=O)NC(=O)[C@H](C)NC(=O)[C@H](CC(C)C)NC(=O)[C@@H](NC(=O)[C@H](CCCCN)NC(=O)[C@H](CCCNC(=N)N)NC(=O)[C@H](Cc2ccc(O)cc2)NC(=O)[C@H](CO)NC(=O)[C@H](C)NC(=O)[C@@H](NC(=O)[C@H](Cc2ccccc2)NC(=O)[C@@H](NC(=O)[C@H](C)NC(=O)[C@H](CC(=O)O)NC(=O)[C@H](C)NC(=O)[C@H](Cc2ccc(O)cc2)NC)[C@@H](C)CC)[C@@H](C)O)C(C)C)C(=O)N[C@@H](CO)C(=O)N[C@@H](C)C(=O)N[C@@H](CCCNC(=N)N)C(=O)N[C@@H](CCCCN)C(=O)N[C@@H](C)C(=O)N[C@@H](CC(C)C)C(=O)N1)[C@@H](C)CC)C(=O)N[C@@H](CO)C(=O)N[C@@H](CCCNC(=N)N)C(N)=O` [SP-29] (H-[NMeY]ADAIFTASYRKVLAQ[R8]SARKAL[S5]DI[Nle]SR-NH2; staple 17-24) showed an EC50 of 1 to 10 nM.

Reference: patent US20180371044A1, “PEPTIDOMIMETIC MACROCYCLES” (Aileron Therapeutics, Inc., priority 2015, published 2018)
